Data: ChEMBL document CHEMBL1201862, “PubChem BioAssay data set” (2004)
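Cultured in 96-well plates, cells were exposed to test compound for 48 hours across five concentrations. GI50 = concentration required for 50% inhibition of growth.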 Active and inactive are the calls of the source. Cut-off read from the data, not from the text of the source: active = GI50 up to about 1.1 µM and inactive = higher.

What was measured:
Test in all cases: NCI tumour cell line growth inhibition, 48 h
LOX IMVI = system: LOX IMVI
UACC-257 = system: UACC-257
NCI-H23 = system: NCI-H23
A498 = system: A498
SK-OV-3 = system: SK-OV-3
SK-MEL-5 = system: SK-MEL-5
MDA-MB-231 = system: MDA-MB-231
SK-MEL-28 = system: SK-MEL-28
HT-29 = system: HT-29
SK-MEL-2 = system: SK-MEL-2
COLO 205 = system: COLO 205
IGROV-1 = system: IGROV-1
SW-620 = system: SW-620
KM12 = system: KM12
PC-3 = system: PC-3
SF-268 = system: SF-268
ACHN = system: ACHN
BT-549 = system: BT-549
SF-295 = system: SF-295

Measured: GI50

C=CCc1cccc2cc(C(=O)Nc3ccccc3)c(=N)oc12
inactive: LOX IMVI > 100 µM | UACC-257 > 100 µM | NCI-H23 79.8 µM | A498 23.2 µM | SK-OV-3 61.7 µM | SK-MEL-5 21.7 µM | MDA-MB-231 > 100 µM | SK-MEL-28 80.4 µM | HT-29 > 100 µM | SK-MEL-2 8.47 µM | COLO 205 > 100 µM | IGROV-1 33.2 µM | SW-620 > 100 µM | KM12 38.9 µM | PC-3 39.2 µM | SF-268 > 100 µM | ACHN 10.1 µM | BT-549 > 100 µM

S=C1c2cc(Cl)ccc2N=C(NC2CCCC2)C2CSCN12 (stereo unspecified)
inactive: LOX IMVI > 100 µM | SF-295 > 75.9 µM | UACC-257 > 91.6 µM | NCI-H23 62.5 µM | A498 > 100 µM | SK-OV-3 > 100 µM | SK-MEL-5 > 100 µM | MDA-MB-231 > 100 µM | SK-MEL-28 > 100 µM | HT-29 > 100 µM | SK-MEL-2 > 76.6 µM | COLO 205 > 100 µM | IGROV-1 > 100 µM | SW-620 > 85.3 µM | KM12 > 41.4 µM | PC-3 > 55.6 µM | SF-268 > 100 µM | ACHN > 100 µM | BT-549 > 100 µM

C#C[C@]1(O)CC[C@H]2[C@@H]3CCC4=C/C(=N/CCOC(=O)c5cccc6cc7ccccc7nc56)CC[C@@H]4[C@H]3CC[C@@]21C
inactive: LOX IMVI 12.3 µM | SF-295 22.3 µM | UACC-257 27.8 µM | NCI-H23 19.9 µM | A498 41 µM | SK-OV-3 64.4 µM | SK-MEL-5 23.7 µM | MDA-MB-231 16.4 µM | SK-MEL-28 75.2 µM | HT-29 28.4 µM | SK-MEL-2 21.7 µM | COLO 205 90.6 µM | IGROV-1 13.8 µM | SW-620 57.3 µM | KM12 20.6 µM | PC-3 11.7 µM | SF-268 20.6 µM | ACHN 29.2 µM | BT-549 24.2 µM

COC1(c2ccccc2)N=C(S)NN=C1c1ccccc1 (stereo unspecified)
inactive: LOX IMVI 36.1 µM | SF-295 30.5 µM | UACC-257 49.1 µM | NCI-H23 36.6 µM | A498 > 100 µM | SK-OV-3 26.7 µM | SK-MEL-5 29.5 µM | MDA-MB-231 27.5 µM | SK-MEL-28 85.1 µM | HT-29 44.2 µM | SK-MEL-2 27.9 µM | COLO 205 21.9 µM | IGROV-1 34.8 µM | SW-620 38.6 µM | KM12 39.8 µM | PC-3 31.4 µM | SF-268 37.2 µM | ACHN > 100 µM | BT-549 28.2 µM

Nc1nc(=O)c(/N=N/c2ccccc2)c(C(=O)O)[nH]1
inactive: LOX IMVI 74.6 µM | SF-295 56.6 µM | UACC-257 62.8 µM | NCI-H23 > 100 µM | A498 > 100 µM | SK-OV-3 > 100 µM | SK-MEL-5 93.8 µM | MDA-MB-231 > 100 µM | SK-MEL-28 > 100 µM | HT-29 45.5 µM | SK-MEL-2 > 100 µM | COLO 205 > 100 µM | IGROV-1 85.7 µM | SW-620 > 100 µM | KM12 > 100 µM | PC-3 > 100 µM | SF-268 72.3 µM | ACHN > 100 µM | BT-549 > 100 µM

C=CCN1C(=O)/C(=C/c2cccs2)N=C1SC/C=C/C
inactive: LOX IMVI 36.1 µM | SF-295 40.4 µM | UACC-257 40.3 µM | NCI-H23 44.7 µM | A498 27 µM | SK-OV-3 95.3 µM | SK-MEL-5 19.1 µM | MDA-MB-231 68.1 µM | SK-MEL-28 54.1 µM | HT-29 34.6 µM | SK-MEL-2 27.2 µM | COLO 205 31.6 µM | IGROV-1 63.8 µM | SW-620 35.6 µM | KM12 31.3 µM | PC-3 35.6 µM | SF-268 46.5 µM | ACHN 35.5 µM | BT-549 39.1 µM

O=C(/C=C/c1ccc(O)c(O)c1)c1cc(O)cc(O)c1
inactive: LOX IMVI 5.42 µM | SF-295 19.7 µM | UACC-257 10.7 µM | NCI-H23 12.3 µM | A498 18.9 µM | SK-OV-3 13.9 µM | SK-MEL-5 > 100 µM | MDA-MB-231 12.8 µM | SK-MEL-28 16.4 µM | HT-29 19.4 µM | SK-MEL-2 13 µM | COLO 205 17.2 µM | IGROV-1 13.8 µM | PC-3 13.5 µM | SF-268 9.79 µM | ACHN 14.7 µM | BT-549 8.69 µM

C[C@]12CCC(=O)[C@@H](CCC3=CC(=O)C=CC3=O)[C@@H]1CCC2=O
inactive: LOX IMVI 11 µM | SF-295 17.8 µM | UACC-257 17.8 µM | NCI-H23 12.5 µM | A498 17.5 µM | SK-OV-3 26.1 µM | SK-MEL-5 6.32 µM | MDA-MB-231 20.3 µM | SK-MEL-28 13.2 µM | HT-29 25.6 µM | SK-MEL-2 11.7 µM | COLO 205 13 µM | SW-620 18.2 µM | KM12 14.3 µM | PC-3 12.9 µM | SF-268 14.3 µM | ACHN 16.6 µM | BT-549 11 µM

CSc1c(C#N)c(O)n(-c2ccc(Cl)cc2)c(=O)c1C#N
inactive: LOX IMVI 14 µM | UACC-257 > 100 µM | NCI-H23 91.2 µM | A498 45.2 µM | SK-OV-3 > 100 µM | SK-MEL-5 > 100 µM | MDA-MB-231 > 100 µM | SK-MEL-28 > 100 µM | HT-29 > 100 µM | SK-MEL-2 > 100 µM | COLO 205 > 100 µM | IGROV-1 > 100 µM | SW-620 61 µM | KM12 36 µM | PC-3 > 100 µM | SF-268 > 100 µM | BT-549 > 100 µM

COc1ccc2c(c1)CCc1c-2n(CCN2CCCCC2)c2ccc(OC)cc12
inactive: LOX IMVI > 100 µM | SF-295 > 100 µM | UACC-257 > 100 µM | NCI-H23 > 100 µM | A498 > 100 µM | SK-OV-3 > 100 µM | SK-MEL-5 > 100 µM | MDA-MB-231 > 100 µM | SK-MEL-28 > 100 µM | HT-29 9.12 µM | SK-MEL-2 > 100 µM | COLO 205 > 100 µM | IGROV-1 > 100 µM | SW-620 > 100 µM | PC-3 > 100 µM | SF-268 > 100 µM | ACHN > 100 µM | BT-549 > 100 µM

CC1(C)CC(=O)c2c(nc3c4c([nH]c(-c5ccc(Br)cc5)c24)CC(C)(C)C3)C1
inactive: LOX IMVI 30.2 µM | SF-295 21.3 µM | UACC-257 66.7 µM | NCI-H23 52.1 µM | A498 13.6 µM | SK-OV-3 > 100 µM | SK-MEL-5 26.8 µM | MDA-MB-231 44 µM | SK-MEL-28 98.9 µM | HT-29 4.79 µM | SK-MEL-2 36.6 µM | COLO 205 19.8 µM | SW-620 49.3 µM | KM12 33.4 µM | PC-3 22.4 µM | SF-268 55.6 µM | ACHN 42.7 µM | BT-549 35.8 µM
